Laboratory results taken from paper PMC9610999, “Itraconazole-Induced Increases in Gilteritinib Exposure Are Mediated by CYP3A and OATP1B” (Molecules, 2022).

Biological target: T1, OATP1B2 (Mus musculus, UniProt Q9JJL3)
T1 construct: expressed in transfected cells; host or cells: HEK293
T1 sequence (Q9JJL3 1-689): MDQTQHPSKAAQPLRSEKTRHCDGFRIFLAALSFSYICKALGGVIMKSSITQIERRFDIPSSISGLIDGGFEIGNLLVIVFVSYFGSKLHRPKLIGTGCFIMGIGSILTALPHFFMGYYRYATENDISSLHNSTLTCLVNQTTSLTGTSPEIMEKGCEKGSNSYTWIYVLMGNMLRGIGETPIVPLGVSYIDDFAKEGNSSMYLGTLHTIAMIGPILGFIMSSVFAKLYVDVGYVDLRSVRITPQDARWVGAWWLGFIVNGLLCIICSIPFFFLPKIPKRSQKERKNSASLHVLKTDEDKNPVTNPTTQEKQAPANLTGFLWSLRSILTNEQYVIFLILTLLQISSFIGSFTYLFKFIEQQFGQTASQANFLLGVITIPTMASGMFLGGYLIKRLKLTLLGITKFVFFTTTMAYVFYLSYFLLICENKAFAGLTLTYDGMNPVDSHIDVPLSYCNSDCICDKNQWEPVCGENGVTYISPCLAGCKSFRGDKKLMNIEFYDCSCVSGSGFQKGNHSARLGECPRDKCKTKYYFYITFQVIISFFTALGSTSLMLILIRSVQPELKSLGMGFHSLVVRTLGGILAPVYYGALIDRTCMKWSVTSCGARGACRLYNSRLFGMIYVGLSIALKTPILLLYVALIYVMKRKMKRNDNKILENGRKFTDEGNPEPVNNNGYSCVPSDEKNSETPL
Test: Transport inhibition assay: 8-FcA uptake in OATP1B2 overexpressing HEK293 cells
Format: cell-based
Details: OATP1B2 overexpressing HEK293 cells vs vector control; fluorescent probe 8-FcA; read-out: IC50, inhibition of OATP1B2 function
Description: Transport inhibition assays using 8-(2-[fluoresceinyl]-aminoethylthio)-adenosine-3′,5′-cyclic-monophosphate (8-FcA) were completed as previously described. OAT1B2 overexpressing cells and vector control cells were grown to confluency in a 96-well plate. Cells were washed, then incubated for 15 min with 100 μL phenol red-free DMEM containing gilteritinib or vehicle (DMSO). The media was removed, then cells were incubated with 45 μL media containing 25 μM 8-FcA for 30 min. The media was removed and cells were washed three times with ice cold PBS. Fluorescence was measured on a plate reader at excitation and emission wavelengths of 485 and 535 nm, respectively. Cells were lysed with 0.2% nitric acid at 4 °C overnight and a Pierce protein assay was used to normalize the data to total protein.

Question: Which IC50 does the source give for `CCc1nc(C(N)=O)c(Nc2ccc(N3CCC(N4CCN(C)CC4)CC3)c(OC)c2)nc1NC1CCOCC1` [Gilteritinib] here?
Answer: Its IC50 is 1830 nM.
